The text below walks through data of BindingDB's records for patent US20230339939 (Bayer Aktiengesellschaft, 2023).

Where only a bound is given, the exact number is not on record here.

Test [1] deals with Epidermal growth factor receptor (Homo sapiens, UniProt P00533). The test is described as follows: WT-EGFR Kinase Assay. The method, then:
For the assay 50 nl of a 100 fold concentrated solution of the test compound in DMSO was pipetted into either a black low volume 384 well microtiter plate or a black 1536 well microtiter plate (both Greiner Bio-One, Frickenhausen, Germany), 2 μL of a solution of EGFR in aqueous assay buffer [50 mM Hepes pH 7.0, 10 mM MgCl2, 1 mM dithiothreitol, 0.5 mM EGTA, 0.3 mM activated sodium ortho-vanadate, 0.005% (w/v) bovine serum albumin, 0.005% (v/v) Tween-20] were added and the mixture was incubated for 15 min at 22° C. to allow pre-binding of the test compounds to the enzyme before the start of the kinase reaction. […] The concentration of EGFR was adjusted depending of the activity of the enzyme lot and was chosen appropriate to have the assay in the linear range, typical concentration was 7.6 pg/μL. The reaction was stopped by the addition of 3 μL of a solution of HTRF detection reagents (83.3 nM streptavidine-XL665 [Cisbio Bioassays, Codolet, France] and 1.67 nM PT66-Tb-Cryptate, a terbium-cryptate labelled anti-phospho-tyrosine antibody from Cisbio Bioassays [instead of the PT66-Tb-cryptate PT66-Eu-Chelate from Perkin Elmer can also be used]) in an aqueous EDTA-solution (133.3 mM EDTA, 0.2% (w/v) bovine serum albumin in 50 mM HEPES pH 7.5). […]

Test [2] concerns the target T1, Casein kinase I isoform alpha (Homo sapiens, UniProt P48729). In words: CSNK1A1 High ATP Assay. From the text:
(§1) Recombinant fusion protein of N-terminal Glutathion-S-Transferase (GST) and full-length human CSNK1A1, expressed by baculovirus infected insect cells and purified via Glutathion affinity chromatography, was purchased from Life Technologies (product no. PV4174) and used as enzyme. As substrate for the kinase reaction the biotinylated peptide biotin-Ahx-KRRRAL-pS-VASLPGL (C-terminus in amide form) was used which can be purchased e.g. from the company Biosyntan (Berlin-Buch, Germany). For the assay 50 nl of a 100 fold concentrated solution of the test compound in DMSO was pipetted into a white low volume 384-well microtiter plate (Greiner Bio-One, Frickenhausen, Germany), 2 μL of a solution of CSNK1A1 in aqueous assay buffer [50 mM HEPES pH 7.5, 10% (v/v) glycerol, 10 mM MgCl2, 50 mM NaCl, 1 mM dithiothreitol, 0.01% (w/v) bovine serum albumin, 0.01% (v/v) Triton X-100] were added and the mixture was incubated for 15 min at 22 C. to allow pre-binding of the test compounds to the enzyme before the start of the kinase reaction. […] Subsequently 2.5 μL of the kinase detection reagent (1.2 fold more concentrated than recommended by the producer) were added, the resulting mixture was incubated at 22 C. for 1 h and then the luminescence measured with a suitable measurement instrument (e.g. Viewlux from Perkin-Elmer).

The target of test [3] is Casein kinase I isoform delta (Homo sapiens, UniProt P48730). In words: CSNK1D-Inhibitory Activity Assay. The method, then:
as §1, with “CSNK1D,” for “CSNK1A1,”, “PV3665)” for “PV4174)”, “Btn-Ahx-[…]” for “biotin-Ahx-KRRRAL-pS-VASLPGL”, “1536-well” for “low volume 384-well”, “CSNK1D” for “CSNK1A1”

Test [4] concerns the target T1, Casein kinase I isoform alpha. In words: CSNK1A1 Inhibitory activity Assay 2.
Excerpt: as §1

T1 sequence (P48729 whole entry, the tested form may be a part, canonical isoform): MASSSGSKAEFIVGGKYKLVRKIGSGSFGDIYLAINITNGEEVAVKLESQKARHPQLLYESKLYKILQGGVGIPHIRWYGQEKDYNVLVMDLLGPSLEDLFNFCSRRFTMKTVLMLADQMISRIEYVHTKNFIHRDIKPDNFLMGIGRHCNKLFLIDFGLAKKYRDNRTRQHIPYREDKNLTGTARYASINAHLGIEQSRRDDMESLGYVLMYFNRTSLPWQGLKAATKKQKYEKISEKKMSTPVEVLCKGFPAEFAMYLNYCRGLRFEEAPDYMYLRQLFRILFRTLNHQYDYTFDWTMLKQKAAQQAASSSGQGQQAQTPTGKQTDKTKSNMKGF
Chain of Casein kinase I isoform delta (P48730 whole entry, canonical isoform): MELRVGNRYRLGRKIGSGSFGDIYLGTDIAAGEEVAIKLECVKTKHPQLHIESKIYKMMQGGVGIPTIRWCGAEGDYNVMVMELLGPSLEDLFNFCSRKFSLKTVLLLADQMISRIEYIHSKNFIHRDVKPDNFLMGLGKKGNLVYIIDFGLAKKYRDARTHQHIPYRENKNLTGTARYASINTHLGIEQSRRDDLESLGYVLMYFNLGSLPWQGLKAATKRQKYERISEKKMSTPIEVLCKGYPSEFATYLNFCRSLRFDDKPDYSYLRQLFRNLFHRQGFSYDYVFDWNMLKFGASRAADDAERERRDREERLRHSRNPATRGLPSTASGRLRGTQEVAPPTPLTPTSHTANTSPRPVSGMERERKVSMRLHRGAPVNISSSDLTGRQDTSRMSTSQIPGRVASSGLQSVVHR
Chain of Epidermal growth factor receptor (P00533 whole entry): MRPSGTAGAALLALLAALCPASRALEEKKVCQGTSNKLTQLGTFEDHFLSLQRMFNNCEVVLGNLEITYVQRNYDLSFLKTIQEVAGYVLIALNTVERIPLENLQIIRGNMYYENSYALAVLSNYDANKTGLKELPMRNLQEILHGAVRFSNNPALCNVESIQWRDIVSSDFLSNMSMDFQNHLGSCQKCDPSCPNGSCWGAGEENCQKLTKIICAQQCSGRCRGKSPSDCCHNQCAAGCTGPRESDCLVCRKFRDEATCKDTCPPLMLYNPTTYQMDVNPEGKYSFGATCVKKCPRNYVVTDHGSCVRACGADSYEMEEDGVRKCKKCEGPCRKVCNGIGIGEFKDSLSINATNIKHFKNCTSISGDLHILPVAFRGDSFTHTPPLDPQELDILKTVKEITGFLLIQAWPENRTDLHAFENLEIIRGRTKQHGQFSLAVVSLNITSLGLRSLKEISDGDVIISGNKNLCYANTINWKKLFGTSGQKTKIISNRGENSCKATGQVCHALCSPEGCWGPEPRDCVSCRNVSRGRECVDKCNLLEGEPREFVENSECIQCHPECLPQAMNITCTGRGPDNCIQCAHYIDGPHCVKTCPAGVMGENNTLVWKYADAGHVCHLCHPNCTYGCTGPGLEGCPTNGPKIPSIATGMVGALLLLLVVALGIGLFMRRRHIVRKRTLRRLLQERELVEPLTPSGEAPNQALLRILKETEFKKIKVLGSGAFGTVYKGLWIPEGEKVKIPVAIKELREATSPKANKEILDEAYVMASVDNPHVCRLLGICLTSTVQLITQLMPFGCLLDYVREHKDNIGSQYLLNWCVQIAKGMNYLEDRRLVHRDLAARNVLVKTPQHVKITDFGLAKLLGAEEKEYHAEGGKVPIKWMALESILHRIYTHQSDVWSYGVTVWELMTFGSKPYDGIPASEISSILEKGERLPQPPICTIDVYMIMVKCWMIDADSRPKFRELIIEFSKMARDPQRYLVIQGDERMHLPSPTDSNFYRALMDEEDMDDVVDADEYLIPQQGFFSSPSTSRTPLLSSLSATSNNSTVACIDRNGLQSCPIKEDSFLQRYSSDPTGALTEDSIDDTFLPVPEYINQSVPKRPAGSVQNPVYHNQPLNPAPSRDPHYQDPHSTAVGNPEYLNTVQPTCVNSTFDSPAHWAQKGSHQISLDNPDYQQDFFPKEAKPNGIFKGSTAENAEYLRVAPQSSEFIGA

`O=C(Cc1ccc(F)cc1)Nc1cc(-c2[nH]c3c(CC4CC4)cc(F)nc3c2-c2ccccn2)ccn1` [US20230339939, Example 37]: the IC50 (usually the concentration that gives 50% inhibition) in test [1] was above 20000 nM; in test [2] it was 9.53 nM; in test [3], 5.76 nM; in test [4] it was 4 nM.
On to `CC(C)C(C(=O)Nc1cc(-c2[nH]c3ccc(F)nc3c2-c2ccccn2)ccn1)c1ccc(F)cc1` (single isomer, unassigned) [US20230339939, Example 24], for which the IC50 in test [2] stood at 43 nM; in test [3] it was 10.4 nM; in test [4], 4.79 nM.
